“Also recorded” adds a separate entry of the source.
What was measured:
ovarian steroidogenosis = assay: Inhibitory activity on ovarian steroidogenesis in women (seric LH, FSH, progesterone, estradiol); format: in vivo; conditions: for reduction of seric levels of progesterone compared to the controls: typical subject (sheet 3), 500 μg intranasal at 8 A.M. and 5 P.M.
Protocol: The study was conducted for 6 consecutive cycles consisting of 2 pretreatment cycles, 2 treatment cycles and 2 post-treatment cycles. […] Daily blood samples were taken between 4 and 6 P.M. to measure seric levels of LH, FSH, progesterone and estradiol which were determined by radioimmuno-logic tests with double antibodies. The antibodies to measure LH and FSH were furnished by the National Pituitory Agency of N.I.H. of Bethesda, Md.
Estradiol and progesterone were measured with highly specific antibodies developed against 7-(0-carboxymethyl)-oxime of estradiol and 12-(0-carboxymethyl)-oxime of progesterone, respectively [3H] 17β-estradiol and ^125 I-progesterone -12-[0-carboxymethyl)-oxime] used as tracers. The serum was extracted with benzene and the steroids were separated with a LH-20 column before the determination. The radioimmunological results were exploited by the program derived from model II of Rodbard and Lewald as in Example 1 and the statistical significance was measured by the multiple level test of Ducan-Kramer of Example 1. The results are shown in the graphs of sheets 3 to 5 of the Figures.

[1] = test system: testicular steriodogenosis; assay: Inhibitory activity on testicular steroidogenesis in a patient with prostate cancer (plasmatic steroids); format: in vivo, human; conditions: 500 μg intranasally twice a day
From the text: The results are reported in the graphs of sheet 2 of the Figures.

[2] = test system: testicular steroidogensis; assay: Inhibitory activity against testicular steroidogenesis in men in good health (seric LH, FSH and steroids by radioimmunoassay); format: in vivo
Protocol: The said product was administered intranasally at a dose of 500 μg in a few drops of distilled water at 8 A.M. on the third day of the test. For 2 days prior to the treatment and for 6 days after the treatment, samples of blood were taken daily at 8 A.M., 3 P.M. and 10 P.M. On the day of administration of the LH-RH agonist, blood samples were taken at 11 A.M. and 6 P.M.
The seric concentrations of LH and FSH were measured by radioimmuno-logic dosages with double antibodies and the antibodies for measuring LH and FSH were furnished by the National Pituitary Agency of N.I.H. in Bethesda, Md. The seric concentrations of steroids was measured by radioimmuno-logic dosages in which one ml of serum was extracted with ether and the steroids were separated on a LH-20 column before measuring with radioimmuno-logic dosages. The radioimmuno-logic dosage results were determined by a program derived from model II of Rodbard et al [Second Karolinska Symposium on Research Methods in Reproductive Endroerinology, Diczfalusky Editor, Copenhague (1970), p. 79-103]. The statistical significance was determined by the "multiple level test" of Duncan-Kramer [Kramer, Biometrics, Vol 12 (1956), p. 307]. The results are shown in the graphs on sheet 1 of the Figures filed herewith.

[3] = intranasal 500 μg, men, 3rd day following administration

## CCNC(=O)[C@@H]1CCCN1C(=O)[C@H](CCCNC(=N)N)NC(=O)[C@H](CC(C)C)NC(=O)[C@@H](COC(C)(C)C)NC(=O)[C@H](Cc1ccc(O)cc1)NC(=O)[C@H](CO)NC(=O)[C@H](Cc1c[nH]c2ccccc12)NC(=O)[C@H](Cc1c[nH]cn1)NC(=O)[C@@H]1CCC(=O)N1 [D Ser (Tbu)^6 of Gly^10 LH-RH ethylamide, [D Ser (Tbu)^6 des.Gly NH2^10] LH-RH ethylamide]
Ovarian steroidogenosis; 12 cycles of post-treatment
  level of progesterone, pretreatment cycles as base of 100%: 99%
Ovarian steroidogenosis; 12 cycles of treatment
  level of progesterone, pretreatment cycles as base of 100%: 46%
Ovarian steroidogenosis; 12 cycles of treatment (sheet 5), scale 13 to 127%
  level of progesterone reduced as compared to the controls: 46%
Ovarian steroidogenosis; first cycle of treatment
  reduction of seric levels of progesterone compared to the controls: 13%
Ovarian steroidogenosis; second cycle of treatment
  reduction of seric levels of progesterone compared to the controls: 34%
[1]
  androgenic steroids (plasmatic): diminution
[1]; two weeks of treatment
  level of testosterone: stabilized at a very low level
[2]; intranasal 500 μg, men
  effect on testicular steroidogenesis in man: inhibition of testicular steroidogenesis
[2]; [3]
  seric concentration of 17-OH-progesterone relative to initial control values: 40%
  seric concentration of testosterone relative to initial control values: 50%
[2]; intranasal 500 μg, men, day of administration
  LH and FSH plasmatic levels: increase
[2]; intranasal 500 μg, men, on the day of treatment
  seric concentration of pregnenolone, 17-OH-pregnenolone, progesterone, 17-OH-progesterone, Δ5-androstene-3β,17β-diol and testosterone: increased
[2]; single intranasal dose of 500 μg, fourth day after administration
  level of testosterone/steroids on the fourth day after administration: returned to normal; also recorded: return to normal levels
[2]; single intranasal dose of 500 μg, human
  duration of the drop of seric levels of testicular steroids (testosterone and its precursors): 3 days

From patent US5389613A, “Method of treating prostate adenocarcinoma, prostate benign hypertrophia and endometriosis” (Roussel Uclaf, priority 1979, dated 1995)
